Consider 7 molecules from article PMC10178421 (2023).

For experiment [1], the system named is CPG-ds27 (DNA, hairpin) CGCGAATTCGCGTTTCGCGAATTCGCG
Nature of the experiment: G4-CPG affinity chromatography. The settings on record: 50 mM KCl; 10% DMSO, 10% ethanol; 60 μM compound; error ±2%.

The test system of experiment [2] is CPG-c-myc (DNA, G4) TGGGGAGGGTGGGGAGGGTGGGGAAGGTGGGGA
Nature of the experiment: G4-CPG affinity chromatography. The following applies: 50 mM KCl; 10% DMSO, 10% ethanol; 60 μM compound; error ±2%.

Experiment [3] deals with CPG-tel26 (DNA, G4) TTAGGGTTAGGGTTAGGGTTAGGGTT
As to the kind of experiment: G4-CPG affinity chromatography. The following applies: 50 mM KCl; 10% DMSO, 10% ethanol; 60 μM compound; error ±2%.

Experiment [4] concerns ds12 (DNA, duplex) CGCGAATTCGCG
Nature of the experiment: fluorescence titration (ligand quenching). The following applies: 20 mM KCl, 5 mM potassium phosphate; pH 7, 20 °C; 2 μM ligand; independent equivalent-sites fit; average over multiple binding events.

Experiment [5] deals with tel26 (DNA, G4) TTAGGGTTAGGGTTAGGGTTAGGGTT
Nature of the experiment: fluorescence titration (ligand quenching). The settings on record: 20 mM KCl, 5 mM potassium phosphate; pH 7, 20 °C; 2 μM ligand; independent equivalent-sites fit; average over multiple binding events.

The subject of experiment [6] is Pu22 (DNA, G4) TGAGGGTGGGTAGGGTGGGTAA
As to the kind of experiment: fluorescence titration (ligand quenching). The following applies: 20 mM KCl, 5 mM potassium phosphate; pH 7, 20 °C; 2 μM ligand; independent equivalent-sites fit; average over multiple binding events.

The test system is the same in experiment [7]. As to the kind of experiment: CD melting (265 nm). The following applies: no added metal cations; 10 mM Tris-HCl, pH 7; 2 μM DNA, 20 μM ligand (10 equiv).

As to `C=CC12C(=O)C(C)(O)C(CC1c1cc(C)cc3c1-c1ccc(O)c(C)c1CC3)C1=C2c2ccc(OC)c(C)c2CC1` (stereo not shown), the “Bound Ligand (%)” value in experiment [1], in experiment [2] and in experiment [3] was 0% each time.
With `C=CC12C(=O)C(C)(O)C3CC1c1c4c(cc(C)c1C31CCc3c(ccc(O)c3C)C21O)CCc1c-4ccc(O)c1C` (stereo not shown), the “Bound Ligand (%)” value is on record as 38% in experiment [1], 56% in experiment [2] and 48% in experiment [3].
For `C=CC12C3=C(CCc4c3ccc(O)c4C)C(CC1c1cc(C)cc3c1-c1ccc(O)c(C)c1CC3)C(C)(O)C2O` (stereo not shown), the “Bound Ligand (%)” value in experiment [1] is listed as 0%; in experiment [2], 18%; in experiment [3], 19%. Further, the Kb entry in experiment [4] is listed as “(6.0 ± 1.7) × 10^5 M^-1”; in experiment [5] it was “(2.3 ± 0.9) × 10^6 M^-1”; in experiment [6], “(4.4 ± 0.7) × 10^5 M^-1”.
In the case of `C=Cc1c(C)c(O)cc2c1-c1ccc(O)c(C)c1CC2`, the “Bound Ligand (%)” value in experiment [1] is 0%; in experiment [2], 4%; in experiment [3], 2%.
Turning to `C=Cc1c(C)c(O[C@@H]2O[C@H](CO)[C@@H](O)[C@H](O)[C@H]2O)cc2c1-c1ccc(O)c(C)c1CC2`, the “Bound Ligand (%)” value was found to be 0% in experiment [1], 3% in experiment [2] and 0% in experiment [3].
On to `C=Cc1c(C)c(O[C@H]2O[C@H](CO)[C@@H](O)[C@H](O)[C@H]2O)cc2c1-c1ccc(O)c(C)c1CC2`, for which the “Bound Ligand (%)” value in experiment [1], in experiment [2] and in experiment [3] was 0% in each case.
On to `Cc1c(O)cc2c3c1CCc1cc(O[C@H]4O[C@H](CO)[C@@H](O)[C@H](O)[C@H]4O)c(C)c(c1-3)CC2`, for which the “Bound Ligand (%)” value in experiment [1] is given as 2%; in experiment [2], 8%; in experiment [3], 9%. Further, the ΔTm result in experiment [7] is “+4 °C”.
